This experiment deals with MDA-MB-231 complex spheroids, growth inhibition. Put plainly: Anticancer human tumor MDA-MB-231 cell line growth inhibition [Asc].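 For all read-outs here: spheroids exposed to compounds for 7 days.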 To be noted: for viability, T/C: stronger effect = lower value. In short, it runs like this: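 Stromal components (HUVEC and hMSC) are co-assembled with the cancer cells into multicellular spheroids. Drugs are then added singly or paired, at concentrations falling by half-log increments from a clinically achievable maximum, capped at 10 microM without known Cmax.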

[1] abbreviates: curve of first compound, second compound 0.1 µM.
The mark [2] stands for this setting: curve of first compound, second compound 0.316 µM.
Where [3] appears, read: curve of first compound, second compound 1 µM.

Values joined by “and” are separate entries in the source; they are usually repeats but may differ in a detail not shown here. Equal entries are not always repeated.

What is called viability, T/C is the result in the treated group divided by that in the control group, in per cent. Broadly, the IC50 is the concentration that inhibits the measured activity by half.

`Cn1ncnc1[C@H]1c2n[nH]c(=O)c3cc(F)cc(c23)N[C@@H]1c1ccc(F)cc1`: the viability, T/C reads like this: (compound 0.000316 µM) 101% and 114% and 108%; (compound 0.001 µM) 100% and 110% and 86.8%; (compound 0.00316 µM) 92.4% and 90.3% and 77.6%; (compound 0.01 µM) 91.5% and 85.7% and 87.9%; (compound 0.0316 µM) 89.1% and 103% and 89.5%; (compound 0.1 µM) 84.4% and 100% and 74.3%. Besides, the 50% inhibitory concentration (IC50) (curve of compound) was > 100 nM.

Take `CCN1CCN(Cc2ccc(Nc3ncc(F)c(-c4cc(F)c5nc(C)n(C(C)C)c5c4)n3)nc2)CC1`: the viability, T/C was 91.9% and 79.5% and 77% (compound 0.00316 µM); 92.6% and 86.9% and 80% (compound 0.01 µM); 78.5% and 79.9% and 88.6% (compound 0.0316 µM); 64.9% and 54.5% and 74.4% (compound 0.1 µM); 51.7% and 48% and 64.4% (compound 0.316 µM); 50.2% and 48.8% and 72% (compound 1 µM). For the same compound, the 50% inhibitory concentration (IC50) (curve of compound) was 882 nM and 238 nM and > 1000 nM.

For `Cc1nc(N2CCC3(CC2)COC(C)C3N)c(CO)nc1Sc1ccnc(N)c1Cl` (stereo unspecified) + Cc1c(S(C)(=O)=O)c(-c2cc(F)cc(N3CCN(c4ccc(NS(=O)(=O)c5ccc(NC(CCN6CCC(C(=O)OCCCP(=O)(O)O)CC6)CSc6ccccc6)c(S(=O)(=O)C(F)(F)F)c5)cc4)CC3)c2)c(-c2ccc(Cl)cc2)n1C(C)C, the IC50 is, setting by setting: under setting [1], 201 nM; under setting [2], 249 nM; under setting [3], 179 nM; (curve of first compound, second compound 3.16 µM) 162 nM; (curve of first compound, second compound 10 µM) 162 nM. Further, the viability, T/C reads like this: (second compound 0.1 µM, first compound 0.00949 µM) 97.2%; (second compound 0.1 µM, first compound 0.03 µM) 90.9%; (second compound 0.1 µM, first compound 0.0949 µM) 76.8%; (second compound 0.1 µM, first compound 0.3 µM) 37%; (second compound 0.1 µM, first compound 0.949 µM) 1.43%; (second compound 0.1 µM, first compound 3 µM) 0.95%. Moreover, the viability, T/C is 108% (second compound 0.316 µM, first compound 0.00949 µM); 99.8% (second compound 0.316 µM, first compound 0.03 µM); 88.9% (second compound 0.316 µM, first compound 0.0949 µM); 44.1% (second compound 0.316 µM, first compound 0.3 µM); 1.42% (second compound 0.316 µM, first compound 0.949 µM); 1.39% (second compound 0.316 µM, first compound 3 µM). Besides, the viability, T/C (second compound 1 µM, first compound 0.00949 µM) was 102%; the viability, T/C (second compound 1 µM, first compound 0.03 µM) was 94%; the viability, T/C (second compound 1 µM, first compound 0.0949 µM) was 81.6%; the viability, T/C (second compound 1 µM, first compound 0.3 µM) is 24.7%; the viability, T/C (second compound 1 µM, first compound 0.949 µM) was 0.73%; the viability, T/C (second compound 1 µM, first compound 3 µM) is 1.11%. For the same compound, the viability, T/C is 95.6% (second compound 3.16 µM, first compound 0.00949 µM); 93.4% (second compound 3.16 µM, first compound 0.03 µM); 78.7% (second compound 3.16 µM, first compound 0.0949 µM); 17% (second compound 3.16 µM, first compound 0.3 µM); 1.15% (second compound 3.16 µM, first compound 0.949 µM); 0.34% (second compound 3.16 µM, first compound 3 µM). The viability, T/C runs as follows: (second compound 10 µM, first compound 0.00949 µM) 106%; (second compound 10 µM, first compound 0.03 µM) 103%; (second compound 10 µM, first compound 0.0949 µM) 82%; (second compound 10 µM, first compound 0.3 µM) 12.9%; (second compound 10 µM, first compound 0.949 µM) 0.64%; (second compound 10 µM, first compound 3 µM) 0.34%.

Regarding `CNC(C)C(=O)NC1CN(S(=O)(=O)c2cccc(S(=O)(=O)N3CCC4CCC(C(=O)NC(c5ccccc5)c5ccccc5)N4C(=O)C(NC(=O)C(C)NC)C3)c2)CCC2CCC(C(=O)NC(c3ccccc3)c3ccccc3)N2C1=O` (stereo unspecified), the viability, T/C was 5.11% and 4.58% and 5.25% (compound 0.00316 µM); 2.25% [middle of 14 runs] (compound 0.01 µM); 1.55% [middle of 14 runs] (compound 0.0316 µM); 1.38% [middle of 12 runs] (compound 0.1 µM). The IC50 is < 10 nM (compound alone, run of 10/24/2022); < 3.16 nM (compound alone, run of 11/15/2022); < 3.16 nM (curve of compound).

As for `C=C(F)C(=O)N1CCN(c2nc(OCC3CCCN3C)nc3c2CCN(c2cccc4cccc(Cl)c24)C3)CC1CC#N` (stereo unspecified) + CNC(C)C(=O)NC1CN(S(=O)(=O)c2cccc(S(=O)(=O)N3CCC4CCC(C(=O)NC(c5ccccc5)c5ccccc5)N4C(=O)C(NC(=O)C(C)NC)C3)c2)CCC2CCC(C(=O)NC(c3ccccc3)c3ccccc3)N2C1=O, the IC50 (curve of first compound, second compound 0.01 µM) is < 31.6 nM; the half-inhibitory concentration (IC50) (curve of first compound, second compound 0.0316 µM) was < 31.6 nM; the IC50 under setting [1] was < 31.6 nM; the IC50 under setting [2] was < 31.6 nM; the half-maximal inhibitory concentration (IC50) under setting [3] is < 31.6 nM. For the same compound, the viability, T/C is, setting by setting: (second compound 0.01 µM, first compound 0.0316 µM) 1.99%; (second compound 0.01 µM, first compound 0.1 µM) 2.81%; (second compound 0.01 µM, first compound 0.316 µM) 1.5%; (second compound 0.01 µM, first compound 1 µM) 1.02%; (second compound 0.01 µM, first compound 3.16 µM) 0.39%; (second compound 0.01 µM, first compound 10 µM) 0.09%. Further, the viability, T/C by setting is: (second compound 0.0316 µM, first compound 0.0316 µM) 1.12%; (second compound 0.0316 µM, first compound 0.1 µM) 2.63%; (second compound 0.0316 µM, first compound 0.316 µM) 1.75%; (second compound 0.0316 µM, first compound 1 µM) 1.07%; (second compound 0.0316 µM, first compound 3.16 µM) 0.75%; (second compound 0.0316 µM, first compound 10 µM) 0.93%. The viability, T/C runs as follows: (second compound 0.1 µM, first compound 0.0316 µM) 0.94%; (second compound 0.1 µM, first compound 0.1 µM) 1.79%; (second compound 0.1 µM, first compound 0.316 µM) 1.68%; (second compound 0.1 µM, first compound 1 µM) 0.86%; (second compound 0.1 µM, first compound 3.16 µM) 0.38%; (second compound 0.1 µM, first compound 10 µM) 0.08%. The viability, T/C (second compound 0.316 µM, first compound 0.0316 µM) is 0.86%; the viability, T/C (second compound 0.316 µM, first compound 0.1 µM) is 1.12%; the viability, T/C (second compound 0.316 µM, first compound 0.316 µM) was 1.54%; the viability, T/C (second compound 0.316 µM, first compound 1 µM) was 1.37%; the viability, T/C (second compound 0.316 µM, first compound 3.16 µM) was 0.42%; the viability, T/C (second compound 0.316 µM, first compound 10 µM) is 0.08%. Further, the viability, T/C was 1.4% (second compound 1 µM, first compound 0.0316 µM); 1.56% (second compound 1 µM, first compound 0.1 µM); 1.18% (second compound 1 µM, first compound 0.316 µM); 1.49% (second compound 1 µM, first compound 1 µM); 0.43% (second compound 1 µM, first compound 3.16 µM); 0.98% (second compound 1 µM, first compound 10 µM).

Values taken from PubChem BioAssay AID1963443 (Molecular Pharmacology Branch, DTP, NCI, 2024).
